Earlier results on one compound are cited in article doi:10.1101/2025.09.30.679517v1 (bioRxiv, 2025).

For the data set the following is noted: human, in vivo, po.

With `COc1ccc2c(c1)[C@]13CCCC[C@@H]1[C@H](C2)N(C)CC3` [dextromethorphan], the primary endpoints result is “reached all primary endpoints” and the tolerability entry is reported as “well-tolerated by patients”.
